Reference: ChEMBL document CHEMBL3046359, “QSAR and pharmacophore studies of telomerase inhibitors” (Med Chem Res, 2012)

Biological target: Telomerase reverse transcriptase (Homo sapiens) (UniProt O14746)
Assay: Inhibition of telomerase in Homo sapiens (human) A549 cells by TRAP assay
Assay type: cell-based

Chain of Telomerase reverse transcriptase (Homo sapiens) (O14746 whole entry): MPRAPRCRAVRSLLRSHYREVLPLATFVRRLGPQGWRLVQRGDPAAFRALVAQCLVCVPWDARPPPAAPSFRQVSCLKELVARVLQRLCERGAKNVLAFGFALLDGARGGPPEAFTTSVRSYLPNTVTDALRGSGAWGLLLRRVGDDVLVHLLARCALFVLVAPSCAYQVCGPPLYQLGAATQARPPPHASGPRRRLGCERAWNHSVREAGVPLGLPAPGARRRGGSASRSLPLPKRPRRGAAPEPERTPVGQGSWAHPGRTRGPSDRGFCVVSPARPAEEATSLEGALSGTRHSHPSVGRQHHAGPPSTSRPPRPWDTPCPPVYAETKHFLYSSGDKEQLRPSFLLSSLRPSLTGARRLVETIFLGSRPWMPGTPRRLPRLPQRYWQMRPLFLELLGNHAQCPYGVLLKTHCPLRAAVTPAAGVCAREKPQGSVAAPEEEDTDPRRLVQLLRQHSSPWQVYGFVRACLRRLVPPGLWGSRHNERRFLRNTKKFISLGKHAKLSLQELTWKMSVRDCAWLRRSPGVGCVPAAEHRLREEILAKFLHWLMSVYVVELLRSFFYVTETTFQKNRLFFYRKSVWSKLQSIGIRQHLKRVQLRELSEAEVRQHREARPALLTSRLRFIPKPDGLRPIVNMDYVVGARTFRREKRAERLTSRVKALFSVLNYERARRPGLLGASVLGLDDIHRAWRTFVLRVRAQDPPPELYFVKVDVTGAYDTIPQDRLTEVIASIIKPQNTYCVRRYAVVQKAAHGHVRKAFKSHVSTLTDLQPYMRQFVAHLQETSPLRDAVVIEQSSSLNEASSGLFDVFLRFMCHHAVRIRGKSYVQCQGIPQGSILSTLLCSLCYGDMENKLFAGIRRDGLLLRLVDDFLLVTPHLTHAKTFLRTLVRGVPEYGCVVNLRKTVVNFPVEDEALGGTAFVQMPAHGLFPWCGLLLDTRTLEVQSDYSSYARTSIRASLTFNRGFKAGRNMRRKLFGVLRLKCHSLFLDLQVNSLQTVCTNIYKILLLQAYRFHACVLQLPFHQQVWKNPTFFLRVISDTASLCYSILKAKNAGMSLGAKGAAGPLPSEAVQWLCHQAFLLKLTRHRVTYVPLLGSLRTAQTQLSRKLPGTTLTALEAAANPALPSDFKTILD

| logIC50 | Structure (SMILES) |
| --- | --- |
| 1.79 | O=C(O)CCCCCCCCCCCNC(=O)Cc1c2n(c3ccccc13)CCn1c-2cc2ccccc21 |

Biological target: Telomerase reverse transcriptase (Homo sapiens) (UniProt O14746)
Assay: Inhibition of telomerase (unknown origin)

| logIC50 | Structure (SMILES) |
| --- | --- |
| 1.22 | O=C(CCN1CCCCC1CCO)Nc1ccc2c(c1)C(=O)c1cc(NC(=O)CCN3CCCCC3CCO)ccc1-2 (stereo unspecified) |
| -1.39 | CSc1nc(Nc2ccc3nc(C)cc(N(C)C)c3c2)nc(Nc2ccc3nc(C)cc(N(C)C)c3c2)n1 |
| -0.3 | CCCNCc1ccc2nc3c(ccc4cc5cc(CNCCC)ccc5nc43)cc2c1 |
| -0.89 | C[n+]1cccc2cc(Nc3nc(N)nc(Nc4ccc5c(ccc[n+]5C)c4)n3)ccc21 |
| -1.55 | CN(C)CCCNCc1ccc2nc3ccc4cc5cc(CNCCCN(C)C)ccc5nc4c3cc2c1 |
| 0.9 | O=C(CCN1CCCCC1CO)Nc1ccc2c(c1)C(=O)c1cc(NC(=O)CCN3CCCCC3CO)ccc1-2 (stereo unspecified) |
| 0 | COc1ccc2c(ccc3c2[nH]c2c4ccccc4nc(NCCCN(C)C)c32)c1 |
| 1.32 | C[N+]1(CCC(=O)Nc2ccc3c(c2)C(=O)c2cc(NC(=O)CC[N+]4(C)CCCCC4)ccc2-3)CCCCC1 |
| -0.04 | CN(C)CCCNCc1ccc2nc3c(ccc4cc5cc(CNCCCN(C)C)ccc5nc43)cc2c1 |
| 0.1 | COc1ccc2ccc3c([nH]c4c5ccccc5nc(NCCN(C)C)c34)c2c1 |
| 1.27 | O=C(CCN1CCC(O)CC1)Nc1ccc2c(c1)C(=O)c1cc(NC(=O)CCN3CCC(O)CC3)ccc1-2 |
| 1.23 | CCN1CCN(CCC(=O)Nc2ccc3c(c2)C(=O)c2cc(NC(=O)CCN4CCN(CC)CC4)ccc2-3)CC1 |
| 1.21 | CN(C)CCC(=O)Nc1ccc2c(c1)C(=O)c1cc(NC(=O)CCN(C)C)ccc1-2 |
| 1.27 | C[N+](C)(C)CCC(=O)Nc1ccc2c(c1)C(=O)c1cc(NC(=O)CC[N+](C)(C)C)ccc1-2 |
| 1.08 | CC1CCCCN1CCC(=O)Nc1ccc2c(c1)C(=O)c1cc(NC(=O)CCN3CCCCC3C)ccc1-2 (stereo unspecified) |
| -2.3 | Cc1oc2nc1-c1nc(co1)-c1nc(co1)-c1nc(co1)-c1nc(co1)-c1nc(co1)C1=NC(CS1)c1nc-2c(C)o1 (stereo unspecified) |

| logIC50 | Structure (SMILES) |
| --- | --- |
| 0.95 | O=C(CCN1CCCCC1)Nc1ccc2c(c1)C(=O)c1cc(NC(=O)CCN3CCCCC3)ccc1-2 |
| -0.52 | CCCNCc1ccc2nc3ccc4cc5cc(CNCCC)ccc5nc4c3cc2c1 |
| 1.2 | CN(C)CCc1ccc2nc3c4ccccc4n(CCN(C)C)c3cc2c1 |
| -0.12 | CN(C)CCCNCc1cc2nc3ccccc3cc2c2cc3ccccc3nc12 |
| 0 | CCCNCc1ccc2nc3ccc4nc5ccc(CNCCC)cc5cc4c3cc2c1 |
| 1.44 | C[N+]1(CCC(=O)Nc2ccc3c(c2)C(=O)c2cc(NC(=O)CC[N+]4(C)CCOCC4)ccc2-3)CCOCC1 |
| 0.3 | c1ccc2nc3cc(CNCCN4CCCCC4)c4nc5ccccc5cc4c3cc2c1 |
| 0.84 | CCN(CC)CCOc1ccc2c(c1)OC1C(=O)c3ccccc3C(=O)C21 (stereo unspecified) |
| 1.15 | CCC1CCCCN1CCC(=O)Nc1ccc2c(c1)C(=O)c1cc(NC(=O)CCN3CCCCC3CC)ccc1-2 (stereo unspecified) |
| 0.16 | CCCNCc1cc2nc3ccccc3cc2c2cc3ccccc3nc12 |
| 1.19 | CCN(CC)CCC(=O)Nc1ccc2c(c1)C(=O)c1cc(NC(=O)CCN(CC)CC)ccc1-2 |
| 1.64 | CN1CCN(CCC(=O)Nc2ccc3c(c2)C(=O)c2cc(NC(=O)CCN4CCN(C)CC4)ccc2-3)CC1 |
| 1.4 | CC[N+](C)(CC)CCC(=O)Nc1ccc2c(c1)C(=O)c1cc(NC(=O)CC[N+](C)(CC)CC)ccc1-2 |
| 0.84 | C[N+](C)(C)c1ccc(Nc2nc(N)nc(Nc3ccc([N+](C)(C)C)cc3)n2)cc1 |
| -0.3 | CN(C)CCCNc1nc2ccccc2c2[nH]c3c4cc([N+](=O)[O-])ccc4ccc3c12 |
| 1.52 | C[N+]1(CCC(=O)Nc2ccc3c(c2)C(=O)c2cc(NC(=O)CC[N+]4(C)CCCCC4CO)ccc2-3)CCCCC1CO (stereo unspecified) |

Biological target: Telomerase reverse transcriptase (Homo sapiens) (UniProt O14746)
Assay: Inhibition of Homo sapiens (human) telomerase

| logIC50 | Structure (SMILES) |
| --- | --- |
| 1.83 | O=C(O)CCCCCCCCCCCNC(=O)Cc1cn(CCCOC2CCCCC2)c2ccccc12 |
| 1.3 | Cc1cn(CCCn2cc(CC(=O)NCCCCCCCCCCCC(=O)O)c3ccccc32)c2ccccc12 |
| 1.54 | O=C(O)CCCCCCCCCCCNC(=O)Cc1cn(CCOc2cccc3ccccc23)c2ccccc12 |
| 1.91 | Cc1c2n(c3ccccc13)CCCn1c-2c(CC(=O)NCCCCCCCCCCCC(=O)O)c2ccccc21 |
| 1.61 | O=C(O)CCCCCCCCCCCNC(=O)Cc1cn(CCn2ccc3ccccc32)c2ccccc12 |
| 1.96 | O=C(O)CCCCCCCCCCCNC(=O)Cc1cn(CCCn2ccc3ccccc32)c2ccccc12 |
| 1.51 | O=C(O)CCCCCCCCCCCNC(=O)Cc1cn(CCCOc2ccccc2)c2ccccc12 |

Biological target: Telomerase reverse transcriptase (Homo sapiens) (UniProt O14746)
Assay: Inhibition of telomerase in Homo sapiens (human) A549 cells after 24 hr by TRAP assay
Assay type: cell-based

| logIC50 | Structure (SMILES) |
| --- | --- |
| 1.11 | O=C(CCN1CCCCCC1)Nc1ccc2c(c1)C(=O)c1ccc(NC(=O)CCN3CCCCCC3)cc1C2=O |
| 0.25 | O=C(CCN1CCCC1)Nc1ccc2c(c1)C(=O)c1ccc(NC(=O)CCN3CCCC3)cc1C2=O |
| 0.49 | O=C(CCN1CCCCCC1)Nc1ccc2cc3ccc(NC(=O)CCN4CCCCCC4)cc3nc2c1 |
| 0.45 | O=C(CCN1CCCCC1)Nc1ccc2cc3ccc(NC(=O)CCN4CCCCC4)cc3nc2c1 |
| 0.65 | O=C(CCN1CCCCC1)Nc1ccc2c(c1)C(=O)c1ccc(NC(=O)CCN3CCCCC3)cc1C2=O |

| Structure (SMILES) | logIC50 |
| --- | --- |
| O=C(CCN1CCCC1)Nc1ccc2cc3ccc(NC(=O)CCN4CCCC4)cc3nc2c1 | 0.72 |
